Assays:
Format in all cases: cell-based, human
[1] = tested on: pErk1/Erk2 in Ha-(Val12)-ras transfected HB4a cells; assay: Western blot of MAPK activation (pErk1/Erk2) after GW2016 treatment, FIG. 3; conditions: Ha-(Val 12)-ras transfected HB4a cells; 1 μM or 5 μM GW2016/72 hours
Description: (§1) The HB4a cell line was derived from human mammary luminal tissue. HB4a-erbB2 and HB4a-ras cell lines were generated by overexpression of erbB2 and mutant Ha-(Val-12)-ras in HB4a cell line. The S1 cell line was established by sub-cloning ErbB-2 transfected HB4a (see Harris R A, Eichholtz T J, Hiles J D, Page M J and O'Hare M J. (1999). Int J. Cancer. 80, 477, 484.)
(§2) HB4a cells grew in RPMI 1640 supplemented with L-glutamine, 10% FBS (Hyclone), 10 ug/ml hydrocortisone, and 5 ug/ml insulin. S1 and ras transfected cells were cultured in RPMI 1640 supplemented with L-glutamine, 10% FBS and 50 μg/ml hygromycin. Cell cultures were maintained in a humidified atmosphere of 5% CO2 at 37° C.
(§3) (a) The dual EGFR/erbB-2 inhibitor N-{3-Chloro-4-[(3-fluorobenzyl)oxy]phenyl}-6-[5-({[2-(methanesulphonyl)ethyl]amino}methyl)-2-furyl]-4-quinazolinamine and the cRaf-1 inhbitor of 3-(3,5-Dibromo-4-hydroxy-benzylidene)-5-iodo-1,3-dihydro-indol-2-one were dissolved in 100% DMSO to form solutions of 1, 5, 10, and 20 μM concentrations and tested on cells in growth medium for 3 continuous days. […]
(§4) Whole cell extracts were prepared by scraping cells off petri dishes, washing the cell pellet twice in PBS, and then resuspending the pellet in two-packed-cell volumes of RIPA buffer (150 mM NaCl, 50 mM Tris-HCl, pH 7.5, 0.25% deoxycholate, 1% NP-40, 5 mM sodium orthovanadate, 2 mM sodium fluoride and a protease inhibitor cocktail). Protein concentrations were determined using a modification of the Bradford method (Bio-Rad Laboratory). Steady state levels of total erbB-2, EGFR, Ras, Erk1/2, pErk1/2 and pTyr protein were assessed by Western blot which was carried out as follows: equal amounts of proteins was resolved by 7.5% SDS polyacrylamide gel electrophoresis under reducing conditions. […] Efficiency and equal loading of proteins was evaluated by Ponceau S staining. […]
(§5) HB4a cells growing in RPMI 1640 supplemented with L-glutamine, 10% FBS (Hyclone), 10 ug/ml hydrocortisone, and 5 μg/ml insulin. […] Protein concentrations were determined using a modification of the Bradford method (Bio-Rad Laboratory).

[2] = tested on: pErk1/Erk2 in parental HB4a cells; assay: as above; conditions: 1 μM or 5 μM GW2016/72 hours
Description: as §1, §2, §3, §4, §5

[3] = tested on: pErk1/Erk2 in erbB-2 transfected HB4a cells; assay: as above; conditions: 1 μM or 5 μM GW2016/72 hours
Description: as §1, §2, §3, §4, §5

[4] = tested on: pTyr in Ha-(Val12)-ras transfected HB4a cells; assay: Western blot of tyrosine phosphorylation (pTyr) after GW2016 treatment, FIG. 2; conditions: 1 μM or 5 μM GW2016/72 hours
Description: as §1, §2, §3, §4, §5

[5] = tested on: pTyr in erbB-2 transfected HB4a cells; assay: as above; conditions: 1 μM or 5 μM GW2016/72 hours
Description: as §1, §2, §3, §4, §5

[6] = tested on: pTyr in parental HB4a cells; assay: as above; conditions: 1 μM or 5 μM GW2016/72 hours
Description: as §1, §2, §3, §4, §5

`CS(=O)(=O)CCNCc1ccc(-c2ccc3ncnc(Nc4ccc(OCc5cccc(F)c5)c(Cl)c4)c3c2)o1` [GW2016, N-{3-Chloro-4-[(3-fluorobenzyl)oxy]phenyl}-6-[5-({[2-(methanesulphonyl)ethyl]amino}methyl)-2-furyl]-4-quinazolinamine] was tested, and the “phosphorylation of Erk1/Erk2, Western blot” value [1] was “no effect”, the “Erk1/Erk2 phosphorylation, Western blot” value [2] was “reduction in Erk1/Erk2 phosphorylation” and the “pErk1/Erk2, Western blot” value [3] was “decrease in pErk1/Erk2”. For the same compound, the “effect on phosphorylation on tyrosine residues (pTyr), Western blot” value [4] was “no effect”, the “tyrosine phosphorylation (pTyr), Western blot” value [5] was “reduction in tyrosine phosphorylation” and the “tyrosine phosphorylation (pTyr), Western blot” value [6] was “reduction in tyrosine phosphorylation”.
